Patent US20250179057A1, “MEK IMMUNE ONCOLOGY INHIBITORS AND THERAPEUTIC USES THEREOF” (Immuneering Corporation, priority 2022, published 2025)

Legend:
CYP2B6 = target: T1, CYP2B6 (Homo sapiens, UniProt P20813); assay: CYP450 panel inhibition in human liver microsomes, 2B6 (bupropion); details: 10 μM, substrate bupropion
T1 sequence (P20813 1-491): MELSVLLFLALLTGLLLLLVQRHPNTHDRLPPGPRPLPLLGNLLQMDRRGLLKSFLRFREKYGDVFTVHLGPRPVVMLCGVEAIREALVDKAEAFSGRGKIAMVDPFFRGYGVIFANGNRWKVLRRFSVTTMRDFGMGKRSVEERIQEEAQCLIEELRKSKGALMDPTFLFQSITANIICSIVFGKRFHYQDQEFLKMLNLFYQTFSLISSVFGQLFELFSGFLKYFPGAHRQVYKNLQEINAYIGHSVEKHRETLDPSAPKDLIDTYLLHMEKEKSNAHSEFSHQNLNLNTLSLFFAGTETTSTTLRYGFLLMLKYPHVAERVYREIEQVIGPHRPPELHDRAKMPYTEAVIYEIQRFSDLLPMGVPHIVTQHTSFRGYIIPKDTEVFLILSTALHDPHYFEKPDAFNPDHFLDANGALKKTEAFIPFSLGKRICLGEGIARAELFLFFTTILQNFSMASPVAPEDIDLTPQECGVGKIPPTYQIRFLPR

CYP2C19 = CYP2C19 (Homo sapiens, UniProt P33261); assay: CYP450 panel inhibition in human liver microsomes, 2C19 (mephenytoin); details: 10 μM, substrate mephenytoin
Sequence of CYP2C19 (P33261 whole entry): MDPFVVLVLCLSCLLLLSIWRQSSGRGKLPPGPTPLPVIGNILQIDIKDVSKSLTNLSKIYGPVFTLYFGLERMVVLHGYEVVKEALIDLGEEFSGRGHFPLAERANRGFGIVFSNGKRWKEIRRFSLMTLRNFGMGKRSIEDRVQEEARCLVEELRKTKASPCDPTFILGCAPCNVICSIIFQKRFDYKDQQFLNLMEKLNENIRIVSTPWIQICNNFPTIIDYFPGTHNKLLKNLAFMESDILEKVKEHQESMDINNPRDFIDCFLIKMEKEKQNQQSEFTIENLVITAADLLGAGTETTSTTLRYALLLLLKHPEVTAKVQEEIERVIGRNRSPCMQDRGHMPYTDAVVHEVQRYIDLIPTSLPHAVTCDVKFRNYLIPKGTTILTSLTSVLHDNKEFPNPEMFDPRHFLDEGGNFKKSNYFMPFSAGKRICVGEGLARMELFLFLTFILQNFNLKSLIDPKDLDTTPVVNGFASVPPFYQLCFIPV

hERG = hERG (Homo sapiens, UniProt Q12809); assay: in vitro; details: read-out: IC50 (μM), hERG ion channel block; Example 46; 5 min exposure per concentration
Sequence of hERG (Q12809 whole entry): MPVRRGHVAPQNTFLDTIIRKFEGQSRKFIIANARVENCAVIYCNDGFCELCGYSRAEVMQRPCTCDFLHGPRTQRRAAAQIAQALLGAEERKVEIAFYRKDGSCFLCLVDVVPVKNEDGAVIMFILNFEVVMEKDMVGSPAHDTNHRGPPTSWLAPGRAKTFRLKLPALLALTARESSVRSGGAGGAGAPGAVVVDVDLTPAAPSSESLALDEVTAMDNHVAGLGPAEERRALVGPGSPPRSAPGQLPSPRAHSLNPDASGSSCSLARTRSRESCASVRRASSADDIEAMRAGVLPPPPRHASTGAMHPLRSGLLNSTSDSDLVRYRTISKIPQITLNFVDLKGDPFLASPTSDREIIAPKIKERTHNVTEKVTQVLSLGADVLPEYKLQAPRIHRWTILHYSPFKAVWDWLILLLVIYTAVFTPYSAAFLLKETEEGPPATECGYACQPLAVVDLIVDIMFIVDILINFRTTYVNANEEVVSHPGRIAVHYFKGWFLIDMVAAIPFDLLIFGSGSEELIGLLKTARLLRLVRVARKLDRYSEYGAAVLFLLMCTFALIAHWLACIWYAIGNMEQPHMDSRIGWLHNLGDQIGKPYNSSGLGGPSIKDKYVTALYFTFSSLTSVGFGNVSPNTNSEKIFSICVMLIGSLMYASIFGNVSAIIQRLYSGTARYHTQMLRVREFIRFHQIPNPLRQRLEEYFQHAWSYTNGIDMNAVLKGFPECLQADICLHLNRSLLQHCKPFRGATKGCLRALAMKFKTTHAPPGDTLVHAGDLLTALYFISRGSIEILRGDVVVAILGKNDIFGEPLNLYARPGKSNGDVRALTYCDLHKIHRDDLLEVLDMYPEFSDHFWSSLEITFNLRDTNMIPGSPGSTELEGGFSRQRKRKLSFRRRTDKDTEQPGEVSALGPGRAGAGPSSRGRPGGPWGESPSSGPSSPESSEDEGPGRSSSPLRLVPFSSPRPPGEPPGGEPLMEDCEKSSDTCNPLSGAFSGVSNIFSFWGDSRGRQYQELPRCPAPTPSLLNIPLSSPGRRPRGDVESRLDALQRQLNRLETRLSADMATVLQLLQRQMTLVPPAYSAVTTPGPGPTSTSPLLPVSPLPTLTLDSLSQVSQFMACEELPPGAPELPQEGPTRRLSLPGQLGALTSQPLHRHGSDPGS
Procedure: Materials and Methods: CHO cells (transformed with adenovirus 5 DNA; Stably transfected with full length hERG cDNA) were cultured in Ham's F-12 supplemented with 10% fetal bovine serum, 100 U/mL penicillin G sodium, 100 μg/mL streptomycin sulfate and 400 μg/mL Zeocin. Before testing, cells in culture dishes were rinsed with Hank's Balanced Salt Solution, detached with accutase.
HEPES-buffered intracellular solution (Charles River proprietary) for whole cell recordings was loaded into the intracellular compartment of the SP384PE. Extracellular buffer (HB-PS) and Cell suspension (in HB-PS) were pipetted into the extracellular compartment of the SP384PE chip. After establishment of a whole-cell configuration, membrane currents were recorded using patch clamp amplifier in the SP384PE system.
Test article (TA) concentrations (eight (8) concentrations of each test article were evaluated) were applied to naïve cells (n=4, where n=replicates/concentration). Each application consisted of addition of 40 μL of 2× concentrated test article solution to the total 80 μL of final volume of the extracellular well of the SP384PE chip. Duration of exposure to each compound concentration was five (5) minutes.
hERG current was measured using stimulus voltage patterns with fixed amplitudes: activation pre-pulse (TP1) to +40 mV for 2 s and test pulse (TP2) to −40 mV for 2 s from a holding potential of −80 mV. hERG current was measured as the outward peak current at TP2 (tail current). The stimulation was repeated with 0.1 Hz frequency during 2 min as baseline and 5 min after TA application.
Data acquisition and analyses were performed using the SP384PE system operation software. The decrease in current amplitude after TA application was used to calculate the percent block relative to control.
Tonic Block effect was calculated as:
[formula] • where ITP2, baseline and ITP2, TA were the outward peak K^+ currents elicited by the TP2 before application and 5 min after application of a test article, respectively.
The data were corrected for run-down:
[formula] • where % VC and % PC were the mean values of the current block with the vehicle and positive controls, respectively.
Concentration-response data were fitted to an equation of the following form:
[formula] • where [Test] was the concentration of test article, IC50 was the concentration of the test article producing half-maximal block, N was the Hill coefficient, % VC was the mean current block at the vehicle control and % Block was the percentage of ion channel current inhibited at each concentration of a test article. Nonlinear least squares fits were solved with the XLfit add-in for Excel (Microsoft, Redmond, WA).
In this study, hERG Ion channel block of IC50 values were determined. […] In brief, CHO cells were cultured in Ham's F-12 supplemented with 10% fetal bovine serum, 100 U/mL penicillin G sodium, 100 μg/mL streptomycin sulfate and 400 μg/mL Zeocin. Before testing, cells in culture dishes were rinsed with Hank's Balanced Salt Solution, detached with accutase. […] Test article (TA) concentrations were applied to naïve cells (n=4, where n=replicates/concentration). Each application consisted of addition of 40 μL of 2× concentrated test article solution to the total 80 μL of final volume of the extracellular well of the SP384PE chip. Duration of exposure to each compound concentration was five (5) minutes. hERG current was measured using stimulus voltage patterns with fixed amplitudes: activation pre-pulse (TP1) to +40 mV for 2 s and test pulse (TP2) to −40 mV for 2 s from a holding potential of −80 mV. hERG current was measured as the outward peak current at TP2 (tail current). The stimulation was repeated with 0.1 Hz frequency during 2 min as baseline and 5 min after TA application. Data acquisition and analyses were performed using the SP384PE system operation software.

CYP3A4 = CYP3A4 (Homo sapiens, UniProt P08684); assay: CYP450 panel inhibition in human liver microsomes, 3A4 (midazolam / testosterone); details: 10 μM; for CYP-3A4 (Midazolam) mean percentage CYP inhibition: substrate midazolam; for CYP-3A4 (Testosterone) mean percentage CYP inhibition: substrate testosterone
Sequence of CYP3A4 (P08684 whole entry): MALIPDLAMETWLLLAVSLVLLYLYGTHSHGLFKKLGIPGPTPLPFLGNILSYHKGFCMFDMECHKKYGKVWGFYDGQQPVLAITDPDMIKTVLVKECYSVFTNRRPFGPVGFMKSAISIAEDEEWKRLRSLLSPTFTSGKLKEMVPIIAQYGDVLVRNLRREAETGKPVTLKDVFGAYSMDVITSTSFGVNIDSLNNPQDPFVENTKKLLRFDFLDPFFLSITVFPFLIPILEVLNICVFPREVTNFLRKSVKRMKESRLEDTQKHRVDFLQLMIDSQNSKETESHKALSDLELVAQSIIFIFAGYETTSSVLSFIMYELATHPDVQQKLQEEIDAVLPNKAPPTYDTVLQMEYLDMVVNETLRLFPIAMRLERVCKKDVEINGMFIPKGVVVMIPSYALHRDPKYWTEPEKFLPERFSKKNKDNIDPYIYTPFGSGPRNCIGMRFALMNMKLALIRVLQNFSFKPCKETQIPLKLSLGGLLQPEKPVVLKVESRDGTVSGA

CYP2D6 = CYP2D6 (Homo sapiens, UniProt P10635); assay: CYP450 panel inhibition in human liver microsomes, 2D6 (dextromethorphan); details: 10 μM, substrate dextromethorphan
Sequence of CYP2D6 (P10635 whole entry): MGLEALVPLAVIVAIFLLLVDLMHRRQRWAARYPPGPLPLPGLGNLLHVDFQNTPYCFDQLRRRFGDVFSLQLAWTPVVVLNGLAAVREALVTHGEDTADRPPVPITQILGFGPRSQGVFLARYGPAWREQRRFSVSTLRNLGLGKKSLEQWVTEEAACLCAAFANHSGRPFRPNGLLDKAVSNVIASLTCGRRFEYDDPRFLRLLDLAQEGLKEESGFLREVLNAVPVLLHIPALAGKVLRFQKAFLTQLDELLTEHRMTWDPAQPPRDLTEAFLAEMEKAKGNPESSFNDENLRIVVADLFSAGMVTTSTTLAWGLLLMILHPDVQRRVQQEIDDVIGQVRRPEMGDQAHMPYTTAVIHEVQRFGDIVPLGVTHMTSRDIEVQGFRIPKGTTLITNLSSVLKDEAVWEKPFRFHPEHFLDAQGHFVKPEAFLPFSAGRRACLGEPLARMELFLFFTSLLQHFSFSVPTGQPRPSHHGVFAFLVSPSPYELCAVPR

[1] = Kinetic solubility (PBS pH 7.4; 4 hr); assay type: physicochemical
In short: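 Compound shaken in PBS pH 7.4 for 4 h at room temperature, then centrifuged. Supernatant, diluted with DMSO, quantified by LC-UV peak area against DMSO calibration curves.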

SMILES | CYP-2B6 (Bupropion) mean percentage CYP inhibition (CYP2B6) | CYP-2C19 (Mephenytoin) mean percentage CYP inhibition (CYP2C19) | IC50 (hERG) | CYP-3A4 (Midazolam) mean percentage CYP inhibition (CYP3A4) | CYP-3A4 (Testosterone) mean percentage CYP inhibition (CYP3A4) | CYP-2D6 (Dextromethorphan) mean percentage CYP inhibition (CYP2D6) | Kinetic Solubility (PBS pH = 7.4; 4 hr) ([1]; PBS pH = 7.4, 4 hr (Table 8)) | solubility kinetic at 4 h ([1]; free base (Table 19), read-out: Kinetic Solubility)
CNS(=O)(=O)Nc1cccc(Cc2c(CN(C)C)c3ccc(OC(=O)N(C)C)cc3oc2=O)c1F [Compound 9] | −2.5% | 17.4% | 22.4 µM | 9.6% | 30.9% | 4.4% | >80 uM | >80 µM
CCCS(=O)(=O)Nc1cccc(Cc2c(CN3CCNCC3)c3cc(Cl)c(OC(=O)N(C)C)cc3oc2=O)c1F [Compound 167] | 19.8% | 67.1% | 1.5 µM | 54.8% | 51.2% | 10.1% |  | 
